The text below walks through data of US10004701B2, “Methods and compositions for treating infection” (UNIVERSITY OF ROCHESTER, priority 2012, dated 2018).

Where a name gives a salt, the structure may show the parent alone. Read-outs that look alike come from different tables or passages of the source.

What all share (experiment): AK assay 384-well format, Prestwick library screening
In one assay the test system is E. faecium. Format: cell-based, Enterococcus faecium. The settings on record: 50 μM final drug concentration; for fold induction at 50 µM: Enterococcus faecium, 3 h.
A further assay deals with P. aeruginosa. In kind it is cell-based, Pseudomonas aeruginosa. The settings on record: 50 μM final drug concentration; for fold induction at 50 µM: Pseudomonas aeruginosa, 3 h.
The test system of assay [1] is S. aureus strain USA300-0114. In kind it is cell-based, Staphylococcus aureus. Particulars: 50 μM final drug concentration; for fold induction at 50 µM: Staphylococcus aureus, USA300, 3 h.
The next assay has as its system K. pneumoniae. In kind it is cell-based, Klebsiella pneumoniae. The settings on record: 50 μM final drug concentration; for fold induction at 50 µM: Klebsiella pneumoniae, 3 h.
The subject of a further assay is E. cloacae. Format: cell-based, Enterobacter cloacae. Particulars: 50 μM final drug concentration; for fold induction at 50 µM: Enterobacter cloacae, 3 h.
Assay [2] concerns A. baumannii strain 98-37-09. In kind it is cell-based, Acinetobacter baumannii. The settings on record: 50 μM final drug concentration; for fold induction at 50 µM: Acinetobacter baumannii, 983709, 3 h.
A further assay relates to E. coli. Format: cell-based, Escherichia coli. Particulars: 50 μM final drug concentration; for fold induction at 50 µM: Escherichia coli, 3 h.
[3] abbreviates: 384-well format, cutoff for positive-scoring molecules 3-fold increase, read-out: AK-based Prestwick Library Screening Results, E. faecium (increase in extracellular AK activity).
The mark [4] stands for this setting: 384-well format, cutoff for positive-scoring molecules 3-fold increase, read-out: AK-based Prestwick Library Screening Results, P. aeruginosa (increase in extracellular AK activity).
The mark [5] stands for this setting: 384-well format, cutoff for positive-scoring molecules 3-fold increase, read-out: AK-based Prestwick Library Screening Results, S. aureus (increase in extracellular AK activity).
[6] abbreviates: 384-well format, cutoff for positive-scoring molecules 3-fold increase, read-out: AK-based Prestwick Library Screening Results, K. pneumoniae (increase in extracellular AK activity).
Setting [7] is: 384-well format, cutoff for positive-scoring molecules 3-fold increase, read-out: AK-based Prestwick Library Screening Results, E. cloacae (increase in extracellular AK activity).
Setting [8] is: 384-well format, cutoff for positive-scoring molecules 3-fold increase, read-out: AK-based Prestwick Library Screening Results, A. baumannii (increase in extracellular AK activity).
Where [9] appears, read: 384-well format, cutoff for positive-scoring molecules 3-fold increase, read-out: AK-based Prestwick Library Screening Results, E. coli (increase in extracellular AK activity).

`CCCNC(C)C(=O)Nc1ccccc1C` (stereo not drawn) [Prilocaine hydrochloride]: the fold induction at 50 µM in the assay on E. faecium (setting [3]) was 0.9; with P. aeruginosa (setting [4]), 0.9; in assay [1] (setting [5]), 0.8; in the assay on K. pneumoniae (setting [6]), 0.7; in the assay on E. cloacae (setting [7]), 1.3; in assay [2] (setting [8]), 0.9. Also, in the assay with E. coli (setting [9]), the fold induction at 50 µM is 0.9.
Regarding `CC[C@@H]1C(=O)OC[C@@H]1Cc1cncn1C` [Pilocarpine nitrate], the fold induction at 50 µM with E. faecium (planktonic, cutoff for positive 3-fold increase, read-out: AK-based Prestwick Library Screening Results, E. faecium (fold increase in extracellular AK activity)) is 1.1; with P. aeruginosa (planktonic, cutoff for positive 3-fold increase, read-out: AK-based Prestwick Library Screening Results, P. aeruginosa (fold increase in extracellular AK activity)) it was 1; in assay [1] (planktonic, cutoff for positive 3-fold increase, read-out: AK-based Prestwick Library Screening Results, S. aureus (fold increase in extracellular AK activity)), 1.3; in the assay with K. pneumoniae (planktonic, cutoff for positive 3-fold increase, read-out: AK-based Prestwick Library Screening Results, K. pneumoniae (fold increase in extracellular AK activity)), 0.9; in the assay with E. cloacae (planktonic, cutoff for positive 3-fold increase, read-out: AK-based Prestwick Library Screening Results, E. cloacae (fold increase in extracellular AK activity)) it was 1.5; in assay [2] (planktonic, cutoff for positive 3-fold increase, read-out: AK-based Prestwick Library Screening Results, A. baumannii (fold increase in extracellular AK activity)), 1. Further, the fold induction at 50 µM in the assay with E. coli (planktonic, cutoff for positive 3-fold increase, read-out: AK-based Prestwick Library Screening Results, E. coli (fold increase in extracellular AK activity)) was 1.
Regarding `CN(C)CCCSC(=N)N` [Dimaprit dihydrochloride], the fold induction at 50 µM with E. faecium (planktonic E. faecium, positive cutoff 3-fold increase, read-out: AK-based Prestwick library screening result, E. faecium (fold increase in extracellular AK activity)) stood at 0.9; in the assay with P. aeruginosa (planktonic P. aeruginosa, positive cutoff 3-fold increase, read-out: AK-based Prestwick library screening result, P. aeruginosa (fold increase in extracellular AK activity)) it was 0.8; in assay [1] (planktonic S. aureus, positive cutoff 3-fold increase, read-out: AK-based Prestwick library screening result, S. aureus (fold increase in extracellular AK activity)) it was 0.7; in the assay with K. pneumoniae (planktonic K. pneumoniae, positive cutoff 3-fold increase, read-out: AK-based Prestwick library screening result, K. pneumoniae (fold increase in extracellular AK activity)), 0.7; in the assay on E. cloacae (planktonic E. cloacae, positive cutoff 3-fold increase, read-out: AK-based Prestwick library screening result, E. cloacae (fold increase in extracellular AK activity)) it was 1; in assay [2] (planktonic A. baumannii, positive cutoff 3-fold increase, read-out: AK-based Prestwick library screening result, A. baumannii (fold increase in extracellular AK activity)), 0.8. The fold induction at 50 µM in the assay on E. coli (planktonic E. coli, positive cutoff 3-fold increase, read-out: AK-based Prestwick library screening result, E. coli (fold increase in extracellular AK activity)) came out at 0.8.
As for `CCC[C@@H]1C[C@@H](C(=O)N[C@@H]([C@H]2O[C@H](SC)[C@H](O)[C@@H](O)[C@H]2O)[C@@H](C)O)N(C)C1` [Lincomycin hydrochloride], the fold induction at 50 µM with E. faecium (planktonic E. faecium, 384-well, cutoff for positive-scoring molecules 3-fold increase, read-out: AK-based Prestwick Library Screening Results: E. faecium (increase in extracellular AK activity)) was determined as 1.3; in the assay on P. aeruginosa (planktonic P. aeruginosa, 384-well, cutoff for positive-scoring molecules 3-fold increase, read-out: AK-based Prestwick Library Screening Results: P. aeruginosa (increase in extracellular AK activity)), 1.2; in assay [1] (planktonic S. aureus, 384-well, cutoff for positive-scoring molecules 3-fold increase, read-out: AK-based Prestwick Library Screening Results: S. aureus (increase in extracellular AK activity)), 7.9; with K. pneumoniae (planktonic K. pneumoniae, 384-well, cutoff for positive-scoring molecules 3-fold increase, read-out: AK-based Prestwick Library Screening Results: K. pneumoniae (increase in extracellular AK activity)), 0.9; in the assay on E. cloacae (planktonic E. cloacae, 384-well, cutoff for positive-scoring molecules 3-fold increase, read-out: AK-based Prestwick Library Screening Results: E. cloacae (increase in extracellular AK activity)) it was 1.3; in assay [2] (planktonic A. baumannii, 384-well, cutoff for positive-scoring molecules 3-fold increase, read-out: AK-based Prestwick Library Screening Results: A. baumannii (increase in extracellular AK activity)) it was 1.2. Moreover, in the assay on E. coli (planktonic E. coli, 384-well, cutoff for positive-scoring molecules 3-fold increase, read-out: AK-based Prestwick Library Screening Results: E. coli (increase in extracellular AK activity)), the fold induction at 50 µM amounted to 0.9.
In the case of `CNC(=O)Oc1ccc2c(c1)[C@]1(C)CCN(C)[C@@H]1N2C.CNC(=O)Oc1ccc2c(c1)[C@]1(C)CCN(C)[C@@H]1N2C.O=S(=O)(O)O` [Eserine sulfate, physostigmine sulfate], the “AK-based Prestwick Library Screening Results, E. faecium (increase in extracellular AK activity)” value in the assay with E. faecium (planktonic E. faecium, […]) was determined as 0.9. Besides, the “AK-based Prestwick Library Screening Results, P. aeruginosa (increase in extracellular AK activity)” value with P. aeruginosa (planktonic P. aeruginosa, […]) worked out at 0.6. Also, the “AK-based Prestwick Library Screening Results, S. aureus (increase in extracellular AK activity)” value in assay [1] (planktonic S. aureus, […]) was 0.4. Besides, the “AK-based Prestwick Library Screening Results, K. pneumoniae (increase in extracellular AK activity)” value in the assay with K. pneumoniae (planktonic K. pneumoniae, […]) turned out to be 0.5. The “AK-based Prestwick Library Screening Results, E. cloacae (increase in extracellular AK activity)” value in the assay on E. cloacae (planktonic E. cloacae, […]) stood at 0.7. For the same compound, the “AK-based Prestwick Library Screening Results, A. baumannii (increase in extracellular AK activity)” value in assay [2] (planktonic A. baumannii, […]) turned out to be 0.5. Also, in the assay with E. coli (planktonic E. coli, […]), the “AK-based Prestwick Library Screening Results, E. coli (increase in extracellular AK activity)” value is 0.7.
`CC(=O)CC(c1ccc([N+](=O)[O-])cc1)c1c(O)c2ccccc2oc1=O` (stereo not drawn) [Acenocoumarol]: the fold induction at 50 µM with E. faecium (setting [3]) amounted to 1; in the assay on P. aeruginosa (setting [4]) it was 0.9; in assay [1] (setting [5]) it was 0.8; with K. pneumoniae (setting [6]) it was 0.7; in the assay on E. cloacae (setting [7]) it was 0.9; in assay [2] (setting [8]), 0.8. For the same compound, the fold induction at 50 µM in the assay with E. coli (setting [9]) is 0.9.
